Paper PMC11109052, “Metabolism characterization and toxicity of N-hydap, a marine candidate drug for lung cancer therapy by LC–MS method” (Natural Products and Bioprospecting, 2024)

Columns and labels:
Cyp2d22 = test: Real-time PCR mRNA level after 7 days gavage: Cyp2d22 (human homolog CYP2D6); type: in vivo, mice; design: key to CYP2D6 mNA expression: ↑: up-regulation; ↓: down-regulation; –: no change
Procedure: (§1) Mice were randomly divided into four groups, with eight animals in each group. The mice received oral pretreatment with N-hydap for 7 days at doses of 2, 5, and 10 mg/kg/day, which were considered as the low dose, medium dose, and high dose, respectively. Correspondingly, the control group received PBS. On the 8th day, the liver and kidneys were removed, and organs from eight mice per group were combined to prepare MLMs and MKMs using the detailed procedures above. Subsequently, we determined the activity of CYP and UGT enzymes by specific substrate metabolized with MLMs (0.5 mg/mL) and MKMs (0.2 mg/mL) in vitro. Specifically, the following selective substrates were used for the respective enzymes: PH (1 μM) for CYP1A2, DIC (1 μM) for CYP2C9, MP (90 μM) for CYP2C19, DM (1 μM) for CYP2D6, CZX (10 μM) for CYP2E1, Tes (1 μM) for CYP3A4, SN38 (1 μM) for UGT1A1, CACD (100 μM) for UGT1A3, Sero (20 μM) for UGT1A6, and Prop (1 μM) for UGT1A9. All substrates were dissolved in methanol or DMSO. The incubation procedure was carried out as mentioned above, and the reaction was terminated with VER (20 ng/mL) in ESI+ mode and CLP (200 ng/mL) in ESI− mode. In the ex vivo experiments, the activity of enzymes was measured by quantifying the production of various metabolites (nM/mg protein/min). The metabolites and their corresponding enzymes are as follows: APAP from PH, 4-OH-DIC from DIC, 4-OH-MP from MP, DXO from DM, 6-OH-CZX from CZX, 6-OH-Tes from Tes, SN38-G from SN38, CACD-G from CACD, Sero-G from Sero, Prop-G from Prop. The measurements were performed using multiple reaction monitoring (MRM) transitions, which are specific mass spectrometry transitions used for quantification. […]
(§2) Total RNA from liver and kidney samples taken after 7 days of N-hydap gavage was extracted using the Animal Total RNA Isolation Kit (Foregene, Chengdu, Sichuan, China) following the manufacturer’s instructions. The concentrations of total RNA were determined by a nucleic acid concentration tester at 260/280 nm. […]

UGT2B7 = target: T1, UGT2B7 (Homo sapiens, UniProt P16662); test: Incubation with recombinant human UGT isoforms: UGT2B7; type: in vitro ADME; details: recombinant UGT 2 μg/mL
T1 construct: purchased Cypex (Scotland, UK)
T1 sequence (P16662 24-529): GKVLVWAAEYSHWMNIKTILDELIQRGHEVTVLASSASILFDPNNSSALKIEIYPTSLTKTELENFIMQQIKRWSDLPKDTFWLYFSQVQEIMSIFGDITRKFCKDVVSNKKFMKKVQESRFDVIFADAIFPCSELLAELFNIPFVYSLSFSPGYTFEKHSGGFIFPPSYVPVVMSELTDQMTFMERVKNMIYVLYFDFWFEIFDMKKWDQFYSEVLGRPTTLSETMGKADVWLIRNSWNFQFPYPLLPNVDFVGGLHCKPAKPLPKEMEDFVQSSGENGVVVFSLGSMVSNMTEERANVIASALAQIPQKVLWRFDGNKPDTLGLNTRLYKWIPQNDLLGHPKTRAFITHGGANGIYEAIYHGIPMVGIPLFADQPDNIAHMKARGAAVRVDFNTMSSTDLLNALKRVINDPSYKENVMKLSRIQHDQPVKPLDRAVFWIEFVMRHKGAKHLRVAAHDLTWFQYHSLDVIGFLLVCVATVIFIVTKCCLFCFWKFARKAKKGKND
Procedure: Incubation of N-hydap (2.5 μM) with eight recombinant human CYP enzymes (CYP1A2, CYP2B6, CYP2C9, CYP2C19, CYP2D6, CYP3A4, CYP4A11 and CYP4F2) at three enzyme concentrations (2, 4, and 20 μg/mL) was conducted following the same procedure as described above for microsomes. Subsequently, incubation with N-hydap (1, 2.5, and 6 μM) and twelve recombinant human UGT isoforms (UGT1A1, UGT1A3, UGT1A4, UGT1A6, UGT1A7, UGT1A8, UGT1A9, UGT1A10, UGT2B4, UGT2B7, UGT2B15 and UGT2B17) was performed, with the enzyme concentration used at 2 μg/mL. All reactions were carried out in triplicate.

Cyp2c39 = test: Real-time PCR mRNA level after 7 days gavage: Cyp2c39 (human homolog CYP2C19); type: in vivo, mice; design: key to CYP2C19 mNA expression: ↑: up-regulation; ↓: down-regulation; –: no change
Procedure: as §1, §2

Cyp1a2 = test: DME activity ex vivo in MLMs and MKMs: CYP1A2 (APAP from PH); design: species or system mice; key to CYP1A2 Enzymatic activity: ↑: up-regulation; ↓: down-regulation; –: no change
Procedure: Mice were randomly divided into four groups, with eight animals in each group. The mice received oral pretreatment with N-hydap for 7 days at doses of 2, 5, and 10 mg/kg/day, which were considered as the low dose, medium dose, and high dose, respectively. Correspondingly, the control group received PBS. On the 8th day, the liver and kidneys were removed, and organs from eight mice per group were combined to prepare MLMs and MKMs using the detailed procedures above. Subsequently, we determined the activity of CYP and UGT enzymes by specific substrate metabolized with MLMs (0.5 mg/mL) and MKMs (0.2 mg/mL) in vitro. Specifically, the following selective substrates were used for the respective enzymes: PH (1 μM) for CYP1A2, DIC (1 μM) for CYP2C9, MP (90 μM) for CYP2C19, DM (1 μM) for CYP2D6, CZX (10 μM) for CYP2E1, Tes (1 μM) for CYP3A4, SN38 (1 μM) for UGT1A1, CACD (100 μM) for UGT1A3, Sero (20 μM) for UGT1A6, and Prop (1 μM) for UGT1A9. All substrates were dissolved in methanol or DMSO. The incubation procedure was carried out as mentioned above, and the reaction was terminated with VER (20 ng/mL) in ESI+ mode and CLP (200 ng/mL) in ESI− mode. In the ex vivo experiments, the activity of enzymes was measured by quantifying the production of various metabolites (nM/mg protein/min). The metabolites and their corresponding enzymes are as follows: APAP from PH, 4-OH-DIC from DIC, 4-OH-MP from MP, DXO from DM, 6-OH-CZX from CZX, 6-OH-Tes from Tes, SN38-G from SN38, CACD-G from CACD, Sero-G from Sero, Prop-G from Prop. The measurements were performed using multiple reaction monitoring (MRM) transitions, which are specific mass spectrometry transitions used for quantification. The optimized parameters for each metabolite, such as declustering potential and collision energy, were described in Supplementary Table 1. All experiments were conducted in triplicate, to ensure accuracy and reproducibility.

## CC1CCC2C(C=CC(C)C2C(=O)c2c(O)c(C3(O)CCC(O)C4OC43)cn(O)c2=O)C1 (stereo not shown) [N-hydap, N-Hydroxyapiosporamide]
Cyp2d22; Kidney
  CYP2D6 mNA expression: –
Cyp2d22; Liver
  CYP2D6 mNA expression: –
Cyp2d22; mice, 2, 5, 10 mg/kg p.o. 7 days
  mRNA levels of Cyp2d22: No significant changes
UGT2B7
  contribution of UGT2B7 to formation of N-hydap-G: secondary contributors
Cyp2c39; Kidney
  CYP2C19 mNA expression: ↓
Cyp2c39; Liver
  CYP2C19 mNA expression: ↓
Cyp2c39; mice, 2, 5, 10 mg/kg p.o. 7 days, liver and kidneys
  mRNA levels of Cyp2c39: slight reduction
Cyp1a2; Kidney
  CYP1A2 Enzymatic activity: ↑
Cyp1a2; Liver
  CYP1A2 Enzymatic activity: –
Cyp1a2; MKMs, range stated jointly for APAP, SN38-G, 6-OH-Tes and CDCA-G
  elevation of formation rate of APAP: 12%-331%
